Measured values: patent US6635649B2, “Piperazinedione compounds” (priority 2000, dated 2003)

Structure (SMILES) | melting point [°C]
O=c1[nH]c(=Cc2ccc(OCc3ccccc3)cn2)c(=O)[nH]c1=Cc1ccc(OCc2ccccc2)cn1 [Compound 10, 3,6-di[(5-phenylmethoxypyridin-2-yl)methylidene]piperazine-2,5-dione] | 283 to 328
CC(=O)N1CC(=O)NC(Cc2ccc(OCc3ccccc3)cn2)C1=O (centres unmarked) [Compound 12, 1-acetyl-3-[(5-benzyloxypyridin-2-yl)methyl]piperazine-2,5-dione] | 215 to 216

The next lines start with the values.

melting point [°C] | Structure (SMILES)
248 to 250 | O=c1[nH]c(=Cc2ccc(OCc3ccccc3)cn2)c(=O)[nH]c1=Cc1ccccn1 [Compound 9, 3-[(5-benzyloxypyridin-2-yl)methylidene]-6-[(2-pyridinyl)methylidene]piperazine-2,5-dione]
228 to 231 | O=C1NC(Cc2ccc(OCc3ccccc3)cn2)C(=O)NC1Cc1ccc(OCc2ccccc2)cn1 (centres unmarked) [Compound 13, 3,6-di[(5-benzyloxypyridin-2-yl)methyl]piperazine-2,5-dione]
256 to 257 | O=c1[nH]c(=Cc2ccco2)c(=O)[nH]c1=Cc1ccc(OCc2ccccc2)cn1 [Compound 7, 3-[(5-benzyloxypyridin-2-yl)methylidene]-6-[(furan-2-yl)methylidene]piperazine-2,5-dione]
